Assay results: patent US5972894A, “Peptides having potassium channel opener activity” (Cytran, Inc., priority 1997, dated 1999)

Key:
rats [1] = test: Early ischemic myocardial arrhythmias after coronary artery ligation; format: in vivo; details: 0.5 mg/kg i.v.; 30 min after coronary occlusion
Protocol: White random-bred male rats weighing 200 g were given light ether anesthesia and were then immobilized and artificially ventilated. The descending branch of the left coronary artery of each rat was ligated. Immediately following ligation, a test or control substance was administered to each rat through the catheterized femoral vein, and an ECG recording was initiated (standard lead II) and maintained for the next 30 minutes.
GE and VT served as test substances and were administered to animals in the respective test groups at doses of 0.1, 1.0, and 10.0 mg/kg. The β-adrenergic blocking agent, propranolol (Obzidan, Germed, Germany), served as the positive control substance and was administered intravenously to each animal in the positive control group at a dose of 0.5 mg/kg. Physiological saline served as the negative control substance and was administered intravenously to animals in the negative control group. Each dose of each test or control substance was tested separately on a group of nine animals.
The following parameters were evaluated based upon the ECG recordings: (i) the number of ventricular extrasystoles that occurred within a 30-minute observation period following coronary occlusion; (ii) the overall cumulative duration of ventricular tachycardias (i.e., the summation of duration of individual paroxysmal ventricular rhythm disturbances in seconds) occurring within the 30-minute observation period; and (iii) the overall duration (in seconds) of the ventricular fibrillations occurring within the 30-minute observation period. The data were processed electronically and statistical comparisons were made between the values obtained from the animals in the experimental test groups and those in the different respective control groups.

rats [2] = test: CPK activity in blood serum 1 hour after coronary occlusion; format: in vivo; details: dose printed --; i.v.; 1 hour after coronary occlusion
Protocol: White random-bred male rats weighing approximately 200 g were anesthetized using a light ether administration and then immobilized and artificially ventilated. […] Immediately after ligation, a test substance, positive, control substance, or negative control substance (described below) was administered to a rat through a catheterized femoral vein. Each dose of each test substance or positive or negative control substance was administered to an experimental or control group of 9 test rats. In this study, GE and VT served as test substances, propranolol served as the positive control substance, and physiological saline served as the negative control substance. Each test rat in an experimental group was given a dose of either 0.1, 1.0, or 10.0 milligram GE per kilogram of body weight of the subject animal (mg/kg) or 0.1, 1.0, or 10.0 milligram VT per kilogram of body weight of the animal. Each animal of the positive control group received an intravenous dose of 0.5 mg of β-adrenergic blocking agent, propranolol (Obzidan, Germed, Germany) per kilogram of body weight. Propranolol is commonly used to manage cardiac arrhythmia and there is some evidence that the agent may reduce the extent of ischemic damage to the heart. […] Each animal of the negative control group received physiological saline.
One hour after initiation of the coronary artery occlusion, each test animal was sacrificed, its blood was collected, and the CPK activity in its blood serum was measured. CPK activity was determined by using a standard biochemical method, such as that commercially available from the Lachema Company (Czechia) in its test kit, and by following the manufacturer's process instructions included in the package insert.
As a supplementary control for the possible trauma caused by the surgical procedure, a group of 9 sham-operated rats was included in the study. These test animals were subjected to chest dissection, but not to coronary artery occlusion. These "sham-operated" animals were not treated with any test or control substances and were euthanized 1 hour after surgery. Their blood was then collected for determination of CPK activity.

For `CC(C)NCC(O)COc1cccc2ccccc12` (stereo not drawn) [Propranolol, propranolol, reference compound], the “Number of Ventricular Extrasystoles” value (rats [1]) was 61.22, the “Overall Duration of Ventricular Tachycardia” value (rats [1]) was 56.74 s and the “CPK Activity in blood serum” value (rats [2]) was 0.170 (±0.011) mcCat/L.
